Where “and” joins values, the source holds several entries; their conditions need not be identical. Equal values may be shown once. ± gives the expanded uncertainty stated by the source.
Details: Liquid, transient hot wire

O=C(C(F)(F)C(F)(F)F)C(F)(C(F)(F)F)C(F)(F)F [dodecafluoro-2-methylpentan-3-one]
Details	thermal conductivity
182.75 K, 277 kPa	0.07883 ± 0.0016 W/m/K
182.75 K, 315 kPa	0.07859 ± 0.0016 W/m/K
182.89 K, 13189 kPa	0.08133 ± 0.0017 W/m/K
182.89 K, 19887 kPa	0.08218 ± 0.0017 W/m/K
182.89 K, 19910 kPa	0.08244 ± 0.0017 W/m/K
182.89 K, 21592 kPa	0.08301 ± 0.0017 W/m/K
182.89 K, 21600 kPa	0.08295 ± 0.0017 W/m/K
182.9 K, 13187 kPa	0.08114 ± 0.0017 W/m/K
183.09 K, 352 kPa	0.0792 ± 0.0016 W/m/K
183.09 K, 355 kPa	0.07913 ± 0.0016 W/m/K
183.16 K, 13354 kPa	0.08121 ± 0.0017 W/m/K
183.16 K, 13358 kPa	0.08178 ± 0.0017 W/m/K
183.18 K, 6554 kPa	0.07996 ± 0.0016 W/m/K
183.18 K, 6555 kPa	0.08035 ± 0.0016 W/m/K
183.19 K, 88 kPa	0.07924 ± 0.0016 W/m/K
183.19 K, 92 kPa	0.07941 ± 0.0016 W/m/K
183.21 K, 21596 kPa	0.08274 ± 0.0017 W/m/K
183.21 K, 21614 kPa	0.08282 ± 0.0017 W/m/K
183.22 K, 13197 kPa	0.08104 ± 0.0017 W/m/K
183.22 K, 13203 kPa	0.08122 ± 0.0017 W/m/K
183.22 K, 19909 kPa	0.08195 ± 0.0017 W/m/K
183.22 K, 19917 kPa	0.08246 ± 0.0017 W/m/K
183.46 K, 394 kPa	0.07899 ± 0.0016 W/m/K
183.47 K, 372 kPa	0.07904 ± 0.0016 W/m/K
183.49 K, 13357 kPa	0.0812 ± 0.0017 W/m/K
183.49 K, 13358 kPa	0.08133 ± 0.0017 W/m/K
183.51 K, 6548 kPa	0.08023 ± 0.0016 W/m/K
183.51 K, 6554 kPa	0.08027 ± 0.0016 W/m/K
183.52 K, 86 kPa	0.07888 ± 0.0016 W/m/K
183.53 K, 84 kPa	0.07899 ± 0.0016 W/m/K
183.57 K, 19904 kPa	0.08223 ± 0.0017 W/m/K
183.57 K, 19917 kPa	0.08242 ± 0.0017 W/m/K
183.57 K, 21616 kPa	0.0827 ± 0.0017 W/m/K
183.57 K, 21619 kPa	0.08258 ± 0.0017 W/m/K
183.58 K, 13189 kPa	0.08088 ± 0.0017 W/m/K and 0.0813 ± 0.0017 W/m/K
183.86 K, 13353 kPa	0.08129 ± 0.0017 W/m/K
183.86 K, 13354 kPa	0.08129 ± 0.0017 W/m/K
183.88 K, 417 kPa	0.07826 ± 0.0016 W/m/K
183.88 K, 441 kPa	0.07853 ± 0.0016 W/m/K
183.88 K, 6566 kPa	0.0801 ± 0.0016 W/m/K
183.88 K, 6568 kPa	0.07993 ± 0.0016 W/m/K
183.9 K, 66 kPa	0.07888 ± 0.0016 W/m/K
183.96 K, 21629 kPa	0.08212 ± 0.0017 W/m/K
183.97 K, 19889 kPa	0.08191 ± 0.0017 W/m/K
183.97 K, 19910 kPa	0.08222 ± 0.0017 W/m/K
183.97 K, 21622 kPa	0.0819 ± 0.0017 W/m/K
183.98 K, 13198 kPa	0.08092 ± 0.0017 W/m/K
183.98 K, 13202 kPa	0.08101 ± 0.0017 W/m/K
184.26 K, 13357 kPa	0.08106 ± 0.0017 W/m/K
184.26 K, 13366 kPa	0.08106 ± 0.0017 W/m/K
184.29 K, 6565 kPa	0.07964 ± 0.0016 W/m/K
184.29 K, 6575 kPa	0.07978 ± 0.0016 W/m/K
184.31 K, 72 kPa	0.07867 ± 0.0016 W/m/K
184.31 K, 77 kPa	0.07869 ± 0.0016 W/m/K
184.34 K, 428 kPa	0.07819 ± 0.0016 W/m/K
184.34 K, 453 kPa	0.0783 ± 0.0016 W/m/K
184.41 K, 19891 kPa	0.08157 ± 0.0017 W/m/K
184.41 K, 19917 kPa	0.08156 ± 0.0017 W/m/K
184.41 K, 21623 kPa	0.08222 ± 0.0017 W/m/K
184.41 K, 21641 kPa	0.08226 ± 0.0017 W/m/K
184.43 K, 13196 kPa	0.0804 ± 0.0016 W/m/K
184.43 K, 13197 kPa	0.08067 ± 0.0017 W/m/K
184.7 K, 13354 kPa	0.08048 ± 0.0016 W/m/K
184.71 K, 13360 kPa	0.0804 ± 0.0016 W/m/K
184.74 K, 6561 kPa	0.07906 ± 0.0016 W/m/K
184.74 K, 6562 kPa	0.07913 ± 0.0016 W/m/K
184.76 K, 74 kPa	0.07764 ± 0.0016 W/m/K
184.77 K, 70 kPa	0.07835 ± 0.0016 W/m/K
191.32 K, 109 kPa	0.078 ± 0.0016 W/m/K
191.32 K, 120 kPa	0.07787 ± 0.0016 W/m/K
191.32 K, 6011 kPa	0.07821 ± 0.0016 W/m/K
191.32 K, 6012 kPa	0.0792 ± 0.0016 W/m/K
191.32 K, 9411 kPa	0.08012 ± 0.0016 W/m/K
191.33 K, 9419 kPa	0.07979 ± 0.0016 W/m/K
191.63 K, 28269 kPa	0.08273 ± 0.0017 W/m/K
191.63 K, 28273 kPa	0.08292 ± 0.0017 W/m/K
191.63 K, 36162 kPa	0.08425 ± 0.0017 W/m/K
191.64 K, 36124 kPa	0.08408 ± 0.0017 W/m/K
191.64 K, 44196 kPa	0.08537 ± 0.0018 W/m/K
191.64 K, 44213 kPa	0.08541 ± 0.0018 W/m/K
191.64 K, 52630 kPa	0.08621 ± 0.0018 W/m/K
191.65 K, 52615 kPa	0.08649 ± 0.0018 W/m/K
191.65 K, 61105 kPa	0.08792 ± 0.0018 W/m/K
191.65 K, 61123 kPa	0.08784 ± 0.0018 W/m/K
191.65 K, 67633 kPa	0.08918 ± 0.0018 W/m/K
191.65 K, 67642 kPa	0.08859 ± 0.0018 W/m/K
191.66 K, 154 kPa	0.07783 ± 0.0016 W/m/K
191.66 K, 6412 kPa	0.07892 ± 0.0016 W/m/K
191.66 K, 6427 kPa	0.07902 ± 0.0016 W/m/K
191.66 K, 13243 kPa	0.0804 ± 0.0016 W/m/K
191.66 K, 13255 kPa	0.08025 ± 0.0016 W/m/K
191.66 K, 20239 kPa	0.08175 ± 0.0017 W/m/K
191.66 K, 20246 kPa	0.08164 ± 0.0017 W/m/K
191.67 K, 112 kPa	0.07744 ± 0.0016 W/m/K
191.67 K, 147 kPa	0.07786 ± 0.0016 W/m/K
191.67 K, 6032 kPa	0.07883 ± 0.0016 W/m/K
191.67 K, 9411 kPa	0.07946 ± 0.0016 W/m/K
191.67 K, 9418 kPa	0.07986 ± 0.0016 W/m/K
191.68 K, 121 kPa	0.07734 ± 0.0016 W/m/K
191.68 K, 6013 kPa	0.07908 ± 0.0016 W/m/K
192 K, 28272 kPa	0.08275 ± 0.0017 W/m/K
192 K, 36150 kPa	0.084 ± 0.0017 W/m/K
192 K, 36164 kPa	0.08417 ± 0.0017 W/m/K
192 K, 44217 kPa	0.08526 ± 0.0018 W/m/K
192 K, 52622 kPa	0.08646 ± 0.0018 W/m/K
192 K, 52639 kPa	0.08637 ± 0.0018 W/m/K
192 K, 61093 kPa	0.08779 ± 0.0018 W/m/K
192 K, 67605 kPa	0.08855 ± 0.0018 W/m/K
192.01 K, 28268 kPa	0.08282 ± 0.0017 W/m/K
192.01 K, 44219 kPa	0.08526 ± 0.0018 W/m/K
192.01 K, 61086 kPa	0.08772 ± 0.0018 W/m/K
192.01 K, 67622 kPa	0.08858 ± 0.0018 W/m/K
192.04 K, 6436 kPa	0.07895 ± 0.0016 W/m/K
192.04 K, 13246 kPa	0.08024 ± 0.0016 W/m/K
192.04 K, 13262 kPa	0.08043 ± 0.0016 W/m/K
192.04 K, 20234 kPa	0.08155 ± 0.0017 W/m/K
192.05 K, 6439 kPa	0.07899 ± 0.0016 W/m/K
192.05 K, 20236 kPa	0.0816 ± 0.0017 W/m/K
192.06 K, 157 kPa	0.07749 ± 0.0016 W/m/K
192.06 K, 162 kPa	0.07742 ± 0.0016 W/m/K
192.06 K, 9415 kPa	0.07961 ± 0.0016 W/m/K
192.06 K, 9425 kPa	0.07956 ± 0.0016 W/m/K
192.07 K, 124 kPa	0.07716 ± 0.0016 W/m/K
192.07 K, 6029 kPa	0.07889 ± 0.0016 W/m/K
192.07 K, 6037 kPa	0.07899 ± 0.0016 W/m/K
192.08 K, 123 kPa	0.07723 ± 0.0016 W/m/K
192.39 K, 61059 kPa	0.08761 ± 0.0018 W/m/K
192.39 K, 67589 kPa	0.08872 ± 0.0018 W/m/K
192.4 K, 44218 kPa	0.08528 ± 0.0018 W/m/K
192.4 K, 52626 kPa	0.08558 ± 0.0018 W/m/K
192.4 K, 61080 kPa	0.08772 ± 0.0018 W/m/K
192.4 K, 67603 kPa	0.08923 ± 0.0018 W/m/K
192.41 K, 28286 kPa	0.08272 ± 0.0017 W/m/K
192.41 K, 36171 kPa	0.08404 ± 0.0017 W/m/K
192.41 K, 44213 kPa	0.08463 ± 0.0017 W/m/K
192.41 K, 52617 kPa	0.08563 ± 0.0018 W/m/K
192.42 K, 28275 kPa	0.08201 ± 0.0017 W/m/K
192.42 K, 36146 kPa	0.08395 ± 0.0017 W/m/K
192.45 K, 20243 kPa	0.08132 ± 0.0017 W/m/K
192.46 K, 20239 kPa	0.08136 ± 0.0017 W/m/K
192.47 K, 13253 kPa	0.08039 ± 0.0016 W/m/K
192.47 K, 13262 kPa	0.08013 ± 0.0016 W/m/K
192.48 K, 6426 kPa	0.07848 ± 0.0016 W/m/K
192.48 K, 6434 kPa	0.07874 ± 0.0016 W/m/K
192.49 K, 9414 kPa	0.0792 ± 0.0016 W/m/K
192.5 K, 157 kPa	0.07741 ± 0.0016 W/m/K
192.5 K, 161 kPa	0.07715 ± 0.0016 W/m/K
192.5 K, 6046 kPa	0.07875 ± 0.0016 W/m/K and 0.07884 ± 0.0016 W/m/K
192.5 K, 9410 kPa	0.07887 ± 0.0016 W/m/K
192.51 K, 147 kPa	0.0771 ± 0.0016 W/m/K
192.52 K, 131 kPa	0.07714 ± 0.0016 W/m/K
192.82 K, 67573 kPa	0.08822 ± 0.0018 W/m/K
192.82 K, 67584 kPa	0.08836 ± 0.0018 W/m/K
192.83 K, 52603 kPa	0.08551 ± 0.0018 W/m/K
192.83 K, 61059 kPa	0.08671 ± 0.0018 W/m/K
192.83 K, 61067 kPa	0.08703 ± 0.0018 W/m/K
192.84 K, 44211 kPa	0.08516 ± 0.0018 W/m/K
192.84 K, 52611 kPa	0.08588 ± 0.0018 W/m/K
192.85 K, 44221 kPa	0.08537 ± 0.0018 W/m/K
192.86 K, 36164 kPa	0.08389 ± 0.0017 W/m/K and 0.08381 ± 0.0017 W/m/K
192.87 K, 28295 kPa	0.08266 ± 0.0017 W/m/K
192.87 K, 28317 kPa	0.08252 ± 0.0017 W/m/K
192.92 K, 20232 kPa	0.08125 ± 0.0017 W/m/K
192.92 K, 20252 kPa	0.08125 ± 0.0017 W/m/K
192.94 K, 13254 kPa	0.08003 ± 0.0016 W/m/K
192.96 K, 6419 kPa	0.07805 ± 0.0016 W/m/K
192.96 K, 6437 kPa	0.07805 ± 0.0016 W/m/K

— the NIST ThermoML archive (doi:10.1021/acs.jced.8b00132)
